Calls of active or inactive are those of the source. The calls are words filed in the database; no cut-off is given here.
Columns and labels:
[1] = test system: ECV-304; assay: Cytotoxicity against human ECV304 cells after 72 hrs by MTT assay; format: functional, cell-based; conditions: ECV-304, 72 h
[2] = test system: ECV-304; assay: Reduction in [3H]cholesterol uptake in human ECV304 cells after 1 hr by liquid scintillation counting; format: functional, cell-based
[3] = test system: ECV-304; assay: Effect on [3H]cholesterol liberation from cell membrane of human ECV304 cells after 1 hr by liquid scintillation counting; format: functional, cell membranes
[4] = test system: ECV-304; assay: Membrane toxicity against human ECV304 cells after 2 hrs by LDH release assay; format: functional, cell-based; conditions: ECV-304, 2 h
[5] = test system: ECV-304; assay: Reduction in [3H]cholesterol content in cytoplasm membrane of human ECV304 cells at 5 uM after 1 hr by liquid scintillation counting; format: functional, cell membranes
[6] = test system: ECV-304; assay: Reduction in [3H]cholesterol content in endosomal/lysosomal membrane of human ECV304 cells at 5 uM after 1 hr by liquid scintillation counting; format: functional, cell membranes

| Structure (SMILES) | IC50 [1] [µM] | Activity [2] | Activity [3] | IC50 [4] [µM] | Activity [5] | Activity [6] |
| --- | --- | --- | --- | --- | --- | --- |
| C[C@@H]1O[C@H](O[C@H]2[C@@H](OC(=O)[C@]34CCC(C)(C)C[C@H]3C3=CC[C@@H]5[C@@]6(C)CC[C@H](O[C@@H]7O[C@H](C(=O)O)[C@@H](O)[C@H](O[C@H]8OC[C@@H](O)[C@H](O)[C@H]8O)[C@H]7O[C@@H]7O[C@H](CO)[C@H](O)[C@H](O)[C@H]7O)[C@@](C)(C=O)[C@@H]6CC[C@@]5(C)[C@]3(C)C[C@H]4O)O[C@H](C)[C@H](O)[C@@H]2O)[C@H](O)[C@H](O[C@@H]2O[C@H](CO)[C@@H](O)[C@H](O)[C@H]2O)[C@H]1O[C@H]1OC[C@@H](O)[C@H](O)[C@H]1O | 8 | Dose-dependent effect | Active |  |  |  |
| COC(=O)[C@@]1(C)CC[C@]2(C(=O)O[C@@H]3O[C@H](CO)[C@@H](O)[C@H](O)[C@H]3O)CC[C@]3(C)C(=CC[C@@H]4[C@@]5(C)CC[C@H](O[C@@H]6O[C@H](C(=O)O)[C@@H](O)[C@H](O)[C@H]6O)C(C)(C)[C@@H]5CC[C@]43C)[C@@H]2C1 | > 100 | inactive | inactive |  |  |  |
| CC1(C)[C@@H](O[C@H]2O[C@H](C(=O)O)[C@@H](O)[C@H](O)[C@H]2O[C@@H]2O[C@H](C(=O)O)[C@@H](O)[C@H](O)[C@H]2O)CC[C@]2(C)[C@H]3C(=O)C=C4[C@@H]5C[C@@](C)(C(=O)O)CC[C@]5(C)CC[C@@]4(C)[C@]3(C)CC[C@@H]12 [GLYCYRRHIZIN] | > 119 | inactive | inactive | > 238 |  |  |
| C[C@H]1O[C@@H](O[C@H]2[C@H](O)[C@@H](O[C@H]3CC[C@]4(C)[C@H]5CC=C6[C@@H]7CC(C)(C)CC[C@]7(C(=O)O[C@@H]7O[C@H](CO[C@@H]8OC[C@](O)(CO)[C@H]8O)[C@@H](O)[C@H](O)[C@H]7O)CC[C@@]6(C)[C@]5(C)CC[C@H]4C3(C)C)O[C@@H](C(=O)O)[C@@H]2O[C@@H]2OC[C@@H](O)[C@H](O)[C@H]2O)[C@@H](O)[C@@H](O)[C@@H]1O | > 100 | inactive | inactive |  |  |  |
| C[C@@H]1O[C@@H](O[C@H]2[C@@H](O)[C@H](O[C@H]3O[C@@H](C)[C@H](O[C@H]4OC[C@@H](O)[C@H](O[C@H]5OC[C@@H](O)[C@H](O)[C@H]5O)[C@H]4O)[C@@H](O)[C@H]3O)[C@H](OC(=O)[C@]34CCC(C)(C)C[C@H]3C3=CC[C@@H]5[C@@]6(C)CC[C@H](O[C@@H]7O[C@H](C(=O)O)[C@@H](O)[C@H](O[C@@H]8OC[C@H](O)[C@@H](O)[C@@H]8O)[C@H]7O[C@@H]7O[C@H](CO)[C@H](O)[C@H](O)[C@H]7O)[C@@](C)(C=O)[C@@H]6CC[C@@]5(C)[C@]3(C)CC4)O[C@H]2C)[C@@H](O)[C@H](O)[C@H]1O | 9 | Dose-dependent effect | Active | 21 | Active | inactive |
| CC[C@H](CC[C@@H](C)[C@H]1CC[C@H]2[C@@H]3CC=C4C[C@@H](O)CC[C@]4(C)[C@H]3CC[C@]12C)C(C)C |  | inactive | inactive |  |  |  |
| C[C@@H]1O[C@@H](O[C@H]2[C@H](O[C@H]3CC[C@@]4(C)[C@@H](CC[C@]5(C)[C@@H]4CC=C4[C@@H]6CC(C)(C)CC[C@]6(C(=O)O[C@@H]6O[C@H](CO[C@@H]7O[C@H](CO)[C@@H](O[C@@H]8O[C@@H](C)[C@H](O)[C@@H](O)[C@H]8O)[C@H](O)[C@H]7O)[C@@H](O)[C@H](O)[C@H]6O)CC[C@]45C)[C@]3(C)CO)OC[C@H](O)[C@@H]2O)[C@H](O)[C@H](O)[C@H]1O [KALOPANAXSAPONIN B] | > 164 | inactive | inactive | > 164 |  |  |
| C[C@@H]1O[C@@H](O[C@H]2[C@H](O[C@H]3CC[C@@]4(C)[C@@H](CC[C@]5(C)[C@@H]4CC=C4[C@@H]6CC(C)(C)CC[C@]6(C(=O)O)CC[C@]45C)[C@]3(C)CO)OC[C@H](O)[C@@H]2O)[C@H](O)[C@H](O)[C@H]1O |  | Dose-dependent effect | inactive |  |  |  |
| C[C@H]1O[C@H](O[C@H]2[C@H](O[C@H]3CC[C@]4(C)[C@H]5CC=C6[C@@H]7CC(C)(C)CC[C@]7(CO)[C@H](O)C[C@@]6(C)[C@]5(C)CC[C@H]4C3(C)C)O[C@H](C(=O)O)[C@H](O[C@H]3O[C@@H](CO[C@@H]4O[C@H](CO)[C@@H](O)[C@H](O)[C@H]4O)[C@@H](O)[C@@H](O)[C@@H]3O)[C@@H]2O)[C@@H](O)[C@@H](O)[C@@H]1O | 13 | Dose-dependent effect | Active | 58 |  |  |
